Source: patent US8546588B2, “Substituted hydroxamic acids and uses thereof” (Millennium Pharmaceuticals, Inc., priority 2010, dated 2013)

The compounds below were run against T1, purified human HDAC6 (Homo sapiens, UniProt Q9UBN7) (assay: HDAC6 Enzyme Assay). Details: substrate Ac-Arg-Gly-Lys(Ac)-AMC peptide, 1 hour at 30° C.
T1 construct: purchased BPS Bioscience 5006
T1 sequence (Q9UBN7 1-1215): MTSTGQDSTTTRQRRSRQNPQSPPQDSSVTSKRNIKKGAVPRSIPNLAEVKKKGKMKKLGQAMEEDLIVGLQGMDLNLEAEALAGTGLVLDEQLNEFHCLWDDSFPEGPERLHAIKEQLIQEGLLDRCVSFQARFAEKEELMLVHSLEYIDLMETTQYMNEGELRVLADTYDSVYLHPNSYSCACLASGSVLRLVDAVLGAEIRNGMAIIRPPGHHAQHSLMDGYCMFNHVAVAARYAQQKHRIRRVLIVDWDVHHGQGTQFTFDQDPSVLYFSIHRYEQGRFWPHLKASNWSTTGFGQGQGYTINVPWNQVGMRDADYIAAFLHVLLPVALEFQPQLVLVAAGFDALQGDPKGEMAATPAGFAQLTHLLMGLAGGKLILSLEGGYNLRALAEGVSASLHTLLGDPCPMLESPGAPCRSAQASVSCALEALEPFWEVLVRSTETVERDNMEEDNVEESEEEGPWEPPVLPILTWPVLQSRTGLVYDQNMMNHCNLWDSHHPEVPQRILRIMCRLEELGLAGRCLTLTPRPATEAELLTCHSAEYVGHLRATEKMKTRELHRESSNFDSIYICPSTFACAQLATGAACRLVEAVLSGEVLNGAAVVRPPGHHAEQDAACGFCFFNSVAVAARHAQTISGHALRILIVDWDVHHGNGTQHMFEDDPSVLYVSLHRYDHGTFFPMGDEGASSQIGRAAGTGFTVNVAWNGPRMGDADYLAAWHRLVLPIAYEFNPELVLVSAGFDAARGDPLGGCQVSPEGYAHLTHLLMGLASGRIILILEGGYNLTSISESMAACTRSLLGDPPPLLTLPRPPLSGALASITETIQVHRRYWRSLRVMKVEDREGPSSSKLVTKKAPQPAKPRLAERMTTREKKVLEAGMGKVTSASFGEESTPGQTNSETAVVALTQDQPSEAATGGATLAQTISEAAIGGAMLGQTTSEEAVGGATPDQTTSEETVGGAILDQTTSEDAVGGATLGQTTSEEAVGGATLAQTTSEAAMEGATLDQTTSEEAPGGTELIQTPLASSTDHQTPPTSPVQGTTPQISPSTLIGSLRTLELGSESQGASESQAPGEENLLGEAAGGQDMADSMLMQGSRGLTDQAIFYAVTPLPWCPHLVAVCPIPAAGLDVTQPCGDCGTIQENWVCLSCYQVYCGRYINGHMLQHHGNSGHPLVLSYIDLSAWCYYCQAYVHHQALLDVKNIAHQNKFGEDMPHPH
Type: biochemical
Procedure: To measure the inhibition of HDAC6 activity, purified human HDAC6 (BPS Bioscience; Cat. No. 5006) is incubated with substrate Ac-Arg-Gly-Lys(Ac)-AMC peptide (Bachem Biosciences; Cat. No. I-1925) for 1 hour at 30° C. in the presence of test compounds or vehicle DMSO control. The reaction is stopped with the HDAC inhibitor trichostatin A (Sigma; Cat. No. T8552) and the amount of Arg-Gly-Lys-AMC generated is quantitated by digestion with trypsin (Sigma; Cat. No. T1426) and subsequent measurement of the amount of AMC released using a fluorescent plate reader (Pherastar; BMG Technologies) set at Ex 340 nm and Em 460 nm. Concentration response curves are generated by calculating the fluorescence increase in test compound-treated samples relative to DMSO-treated controls, and enzyme inhibition (IC50) values are determined from those curves.

Compound | IC50 [µM]
CC(NC(=O)Nc1cc(C(F)(F)F)ccc1F)c1ccc(C(=O)NO)s1 (stereo not shown) [Compound I-7, 5-{1-[({[2-fluoro-5-(trifluoromethyl)phenyl]amino}carbonyl)amino]ethyl}-N-hydroxythiophene-2-carboxamide] | < 0.1
Cc1nc(-c2ccccn2)sc1C(=O)N[C@H](C)c1ncc(C(=O)NO)s1 [Compound I-167, N-((1R)-1-{5-[(hydroxyamino)carbonyl]-1,3-thiazol-2-yl}ethyl)-4-methyl-2-pyridin-2-yl-1,3-thiazole-5-carboxamide] | < 0.1
C[C@@H](NC(=O)c1cc2ccccc2s1)c1ccc(C(=O)NO)s1 [Compound I-16, N-((1R)-1-{5-[(hydroxyamino)carbonyl]-2-thienyl}ethyl)-1-benzothiophene-2-carboxamide] | < 0.1
COc1ccc(C)cc1NC(=O)NC(C)c1ccc(C(=O)NO)s1 (stereo not shown) [Compound I-19, N-hydroxy-5-[1-({[(2-methoxy-5-methylphenyl)amino]carbonyl}amino)ethyl]thiophene-2-carboxamide] | < 0.1
Cc1nc(-c2ccccn2)sc1C(=O)N[C@@H](C)c1ncc(C(=O)NO)s1 [Compound I-168, N-((1S)-1-{5-[(hydroxyamino)carbonyl]-1,3-thiazol-2-yl}ethyl)-4-methyl-2-pyridin-2-yl-1,3-thiazole-5-carboxamide] | < 0.1
CC(NC(=O)c1cc2ccccc2s1)c1ncc(C(=O)NO)s1 (stereo not shown) [Compound I-54, 2-{1-[(1-benzothien-2-ylcarbonyl)amino]ethyl}-N-hydroxy-1,3-thiazole-5-carboxamide] | < 0.1
Cc1ccc(NC(=O)NC(C)c2ccc(C(=O)NO)s2)c(C)c1 (stereo not shown) [Compound I-13, 5-[1-({[(2,4-dimethylphenyl)amino]carbonyl}amino)ethyl]-N-hydroxythiophene-2-carboxamide] | < 0.1
C[C@@H](NC(=O)C1(C)CCCCC1)c1cc(C(=O)NO)on1 [Compound I-157, N-hydroxy-3-((1R)-1-{[(1-methylcyclohexyl)carbonyl]amino}ethyl)isoxazole-5-carboxamide] | > 0.5
CC(NC(=O)Nc1ccccc1Oc1ccccc1)c1ccc(C(=O)NO)s1 (stereo not shown) [Compound I-44, N-hydroxy-5-[1-({[(2-phenoxyphenyl)amino]carbonyl}amino)ethyl]thiophene-2-carboxamide] | < 0.1
C[C@@H](NC(=O)C12CC3CC(CC(C3)C1)C2)c1cc(C(=O)NO)on1 [Compound I-170, 3-{(1R)-1-[(1-adamantylcarbonyl)amino]ethyl}-N-hydroxyisoxazole-5-carboxamide] | > 0.5
CC(NC(=O)Nc1cc(Cl)cc(Cl)c1)c1ccc(C(=O)NO)s1 (stereo not shown) [Compound I-4, 5-[1-({[(3,5-dichlorophenyl)amino]carbonyl}amino)ethyl]-N-hydroxythiophene-2-carboxamide] | 0.1 to 0.5
CC(NC(=O)Nc1ccc(Oc2ccccc2)cc1)c1ccc(C(=O)NO)s1 (stereo not shown) [Compound I-14, N-hydroxy-5-[1-({[(4-phenoxyphenyl)amino]carbonyl}amino)ethyl]thiophene-2-carboxamide] | < 0.1
C[C@@H](NC(=O)c1cc2ccccc2o1)c1cc(C(=O)NO)on1 [Compound I-181, (R)-3-(1-(benzofuran-2-carboxamido)ethyl)-N-hydroxyisoxazole-5-carboxamide] | > 0.5
CC(NC(=O)Nc1c(F)cccc1F)c1ccc(C(=O)NO)s1 (stereo not shown) [Compound I-20, 5-[1-({[(2,6-difluorophenyl)amino]carbonyl}amino)ethyl]-N-hydroxythiophene-2-carboxamide] | 0.1 to 0.5
Cc1ccccc1S(=O)(=O)NC(C)c1ccc(C(=O)NO)s1 (stereo not shown) [Compound I-35, N-hydroxy-5-(1-{[(2-methylphenyl)sulfonyl]amino}ethyl)thiophene-2-carboxamide] | 0.1 to 0.5
CC(NC(=O)C1(c2ccc(Cl)cc2)CCC1)c1ncc(C(=O)NO)s1 (stereo not shown) [Compound I-55, 2-[1-({[1-(4-chlorophenyl)cyclobutyl]carbonyl}amino)ethyl]-N-hydroxy-1,3-thiazole-5-carboxamide] | > 0.5
